According to publication PMC6478789, “A chemical toolbox for the study of bromodomains and epigenetic signaling” (Nature Communications, 2019):
Like-named read-outs stand apart in the source and are kept apart here.

Legend:
EP300 = EP300 (Homo sapiens, UniProt Q09472); assay: Histone acetyltransferase (HAT) activity assay; assay type: biochemical; conditions: read-out: HATs Activity (%);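 also: selectivity screen of bromodomain probe compounds against histone acetyltransferases, with enzyme activity given in percent for compounds tested at 1 and 10 µM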
HAT1 = target: T1, HAT1 (Homo sapiens, UniProt O14929); assay: Histone acetyltransferase (HAT) activity assay; assay type: biochemical; conditions: read-out: HATs Activity (%);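 also: HAT selectivity screen of BRD probe compounds, enzyme activity in % measured with compound at 1 µM and 10 µM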
T1 sequence (O14929 1-419): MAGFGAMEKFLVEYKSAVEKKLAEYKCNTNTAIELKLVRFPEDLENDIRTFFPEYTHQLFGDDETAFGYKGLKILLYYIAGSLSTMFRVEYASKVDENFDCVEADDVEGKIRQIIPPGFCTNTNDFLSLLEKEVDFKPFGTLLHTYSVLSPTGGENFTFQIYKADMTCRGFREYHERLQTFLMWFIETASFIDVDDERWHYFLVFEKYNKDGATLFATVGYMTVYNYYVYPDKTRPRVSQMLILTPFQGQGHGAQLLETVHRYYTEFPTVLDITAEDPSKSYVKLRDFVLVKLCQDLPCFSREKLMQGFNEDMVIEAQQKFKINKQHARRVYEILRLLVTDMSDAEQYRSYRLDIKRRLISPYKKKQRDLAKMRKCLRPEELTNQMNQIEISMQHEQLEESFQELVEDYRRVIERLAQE

MYST1 = target: T2, MYST1 (Homo sapiens, UniProt Q9H7Z6); assay: Histone acetyltransferase (HAT) activity assay; assay type: biochemical; conditions: read-out: HATs Activity (%);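 also: selectivity screen across a panel of histone acetyltransferases, with compounds tested at 1 and 10 µM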
T2 sequence (Q9H7Z6 1-458): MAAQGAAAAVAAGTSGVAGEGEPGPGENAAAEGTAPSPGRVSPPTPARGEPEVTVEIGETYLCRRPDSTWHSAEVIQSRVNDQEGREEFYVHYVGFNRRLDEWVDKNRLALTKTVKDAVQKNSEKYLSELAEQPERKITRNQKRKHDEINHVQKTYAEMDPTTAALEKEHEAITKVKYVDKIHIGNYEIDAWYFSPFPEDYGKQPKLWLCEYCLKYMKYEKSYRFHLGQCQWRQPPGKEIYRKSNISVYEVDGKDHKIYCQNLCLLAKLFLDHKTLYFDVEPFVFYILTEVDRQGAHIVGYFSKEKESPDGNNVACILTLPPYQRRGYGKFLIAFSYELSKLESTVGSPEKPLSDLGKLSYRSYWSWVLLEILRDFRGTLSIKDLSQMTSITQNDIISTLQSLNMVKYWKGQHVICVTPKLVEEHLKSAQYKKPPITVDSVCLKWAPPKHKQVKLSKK

MYST3 = MYST3 (Homo sapiens, UniProt Q92794); assay: Histone acetyltransferase (HAT) activity assay; assay type: biochemical; conditions: read-out: HATs Activity (%);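 also: selectivity screen of bromodomain probe compounds across a panel of histone acetyltransferases, read out as enzyme activity in %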
GCN5L2 = GCN5L2 (Homo sapiens, UniProt Q92830); assay: Histone acetyltransferase (HAT) activity assay; assay type: biochemical; conditions: read-out: HATs Activity (%);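 also: selectivity screen of BRD probe compounds across a panel of histone acetyltransferases, HAT activity in % with compound at 1 or 10 µM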
BAZ2A = target: T3, BAZ2A (Homo sapiens, UniProt Q9UIF9); assay: BROMOscan ligand-binding assay
T3 sequence (Q9UIF9 1793-1897 limits assumed): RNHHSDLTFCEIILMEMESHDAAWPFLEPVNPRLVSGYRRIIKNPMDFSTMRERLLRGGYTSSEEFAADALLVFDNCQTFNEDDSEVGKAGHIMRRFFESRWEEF
Description: (§1) BROMOscan is a binding assay based on the well-known KINOMEscan technology. This assay measures the binding of a DNA-tagged bromodomain to an immobilized BRD ligand. If an inhibitor is present, it will compete with the bromodomain binding to the immobilized ligand, resulting in reduction of a quantitative PCR (qPCR) signal in a dose-dependent manner.

BRD1 = target: T4, BRD1 (Homo sapiens, UniProt O95696); assay: BROMOscan ligand-binding assay
T4 sequence (O95696 562-666 limits assumed): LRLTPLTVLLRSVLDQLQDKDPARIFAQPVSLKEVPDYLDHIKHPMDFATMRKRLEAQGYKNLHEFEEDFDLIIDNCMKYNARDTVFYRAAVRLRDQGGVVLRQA
Description: as §1

BRD2(1) = BRD2(1) (Homo sapiens, UniProt P25440); assay: BROMOscan ligand-binding assay
Description: as §1

BRD2(2) = BRD2(2) (Homo sapiens, UniProt P25440); assay: BROMOscan ligand-binding assay
Description: as §1

BRD7 = target: T5, BRD7 (Homo sapiens, UniProt Q9NPI1); assay: BROMOscan ligand-binding assay
T5 sequence (Q9NPI1 131-235 limits assumed): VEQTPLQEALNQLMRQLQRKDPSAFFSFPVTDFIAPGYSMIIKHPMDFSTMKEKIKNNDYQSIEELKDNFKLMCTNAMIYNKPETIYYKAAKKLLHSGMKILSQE
Description: as §1

BRD8(2) = BRD8(2) (Homo sapiens, UniProt Q9H0E9); assay: BROMOscan ligand-binding assay
Description: as §1

FALZ = FALZ (Homo sapiens, UniProt Q12830); assay: BROMOscan ligand-binding assay
Description: as §1

PBRM1(2) = PBRM1(2) (Homo sapiens, UniProt Q86U86); assay: BROMOscan ligand-binding assay
Description: as §1

PBRM1(5) = PBRM1(5) (Homo sapiens, UniProt Q86U86); assay: BROMOscan ligand-binding assay
Description: as §1

TAF1L(2) = target: T6, TAF1L(2) (Homo sapiens, UniProt Q8IZX4); assay: BROMOscan ligand-binding assay
T6 sequence (Q8IZX4 1517-1626 limits assumed): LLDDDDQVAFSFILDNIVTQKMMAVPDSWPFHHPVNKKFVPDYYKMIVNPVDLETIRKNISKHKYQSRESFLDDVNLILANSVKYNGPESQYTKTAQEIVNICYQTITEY
Description: as §1

TRIM24(PHD,BRD) = target: T7, TRIM24(PHD,BRD) (Homo sapiens, UniProt O15164); assay: BROMOscan ligand-binding assay
T7 sequence (O15164 824-1006 limits assumed): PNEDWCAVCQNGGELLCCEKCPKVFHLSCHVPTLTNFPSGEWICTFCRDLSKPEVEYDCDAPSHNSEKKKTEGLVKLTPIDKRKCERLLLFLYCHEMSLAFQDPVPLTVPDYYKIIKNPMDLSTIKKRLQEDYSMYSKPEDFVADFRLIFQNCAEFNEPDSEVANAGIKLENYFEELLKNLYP
Description: as §1

WDR9(2) = WDR9(2) (Homo sapiens, UniProt Q9NSI6); assay: BROMOscan ligand-binding assay
Description: as §1

BRPF1 = BRPF1 (Homo sapiens, UniProt P55201); assay: Temperature shift assay (non-BRD reader domains); assay type: binding; conditions: 10µM compound
[1] = KD (BROMOscan), sheet prints no unit (nM)
[2] = KD, BROMOscan Gene Symbol BRD8(2)

BRD2(2), sequence (P25440 344-453 limits assumed): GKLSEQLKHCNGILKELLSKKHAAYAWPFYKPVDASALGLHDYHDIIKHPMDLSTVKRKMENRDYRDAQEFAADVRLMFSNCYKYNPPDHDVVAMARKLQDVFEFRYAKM
PBRM1(5), sequence (Q86U86 653-763 limits assumed): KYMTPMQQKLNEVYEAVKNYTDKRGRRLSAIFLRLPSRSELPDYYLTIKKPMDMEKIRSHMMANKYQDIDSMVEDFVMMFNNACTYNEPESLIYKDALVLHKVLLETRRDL
GCN5L2, sequence (Q92830 whole entry, species assumed): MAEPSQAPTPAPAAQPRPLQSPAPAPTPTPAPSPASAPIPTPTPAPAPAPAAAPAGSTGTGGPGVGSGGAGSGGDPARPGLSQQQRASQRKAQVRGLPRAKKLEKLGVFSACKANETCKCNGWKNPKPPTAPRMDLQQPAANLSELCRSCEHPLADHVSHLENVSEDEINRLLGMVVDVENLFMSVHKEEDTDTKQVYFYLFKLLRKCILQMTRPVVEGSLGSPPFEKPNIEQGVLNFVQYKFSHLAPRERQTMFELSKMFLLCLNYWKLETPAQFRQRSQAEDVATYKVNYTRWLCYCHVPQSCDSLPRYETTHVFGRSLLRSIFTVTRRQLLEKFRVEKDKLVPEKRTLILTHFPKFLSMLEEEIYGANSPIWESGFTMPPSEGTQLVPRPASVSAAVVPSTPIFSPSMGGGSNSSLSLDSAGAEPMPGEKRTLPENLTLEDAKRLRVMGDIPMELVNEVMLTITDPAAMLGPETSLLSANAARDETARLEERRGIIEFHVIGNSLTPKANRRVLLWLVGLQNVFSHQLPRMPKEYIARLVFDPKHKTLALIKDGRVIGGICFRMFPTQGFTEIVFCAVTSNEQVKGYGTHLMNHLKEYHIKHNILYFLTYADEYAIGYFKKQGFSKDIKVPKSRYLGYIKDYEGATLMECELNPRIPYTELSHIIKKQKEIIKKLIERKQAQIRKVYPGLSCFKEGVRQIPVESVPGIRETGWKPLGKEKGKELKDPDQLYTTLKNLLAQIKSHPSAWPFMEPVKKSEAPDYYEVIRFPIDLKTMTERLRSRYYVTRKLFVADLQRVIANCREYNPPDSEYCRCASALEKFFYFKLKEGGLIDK
BRD8(2), sequence (Q9H0E9 1099-1207 limits assumed): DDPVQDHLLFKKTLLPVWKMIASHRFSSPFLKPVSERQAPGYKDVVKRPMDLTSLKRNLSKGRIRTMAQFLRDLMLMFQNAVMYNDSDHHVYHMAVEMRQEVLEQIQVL
WDR9(2), sequence (Q9NSI6 1313-1418 limits assumed): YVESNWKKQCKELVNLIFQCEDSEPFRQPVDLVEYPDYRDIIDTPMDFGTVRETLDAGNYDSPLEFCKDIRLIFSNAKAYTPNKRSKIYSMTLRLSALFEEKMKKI
PBRM1(2), sequence (Q86U86 177-287 limits assumed): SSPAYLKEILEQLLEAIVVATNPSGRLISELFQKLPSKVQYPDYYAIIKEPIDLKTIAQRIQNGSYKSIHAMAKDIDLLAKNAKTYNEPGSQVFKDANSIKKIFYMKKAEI
BRD2(1), sequence (P25440 74-180 limits assumed): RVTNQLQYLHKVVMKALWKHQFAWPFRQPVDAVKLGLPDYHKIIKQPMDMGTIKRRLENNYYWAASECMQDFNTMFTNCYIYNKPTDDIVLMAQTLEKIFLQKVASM
EP300, sequence (Q09472 whole entry, species assumed): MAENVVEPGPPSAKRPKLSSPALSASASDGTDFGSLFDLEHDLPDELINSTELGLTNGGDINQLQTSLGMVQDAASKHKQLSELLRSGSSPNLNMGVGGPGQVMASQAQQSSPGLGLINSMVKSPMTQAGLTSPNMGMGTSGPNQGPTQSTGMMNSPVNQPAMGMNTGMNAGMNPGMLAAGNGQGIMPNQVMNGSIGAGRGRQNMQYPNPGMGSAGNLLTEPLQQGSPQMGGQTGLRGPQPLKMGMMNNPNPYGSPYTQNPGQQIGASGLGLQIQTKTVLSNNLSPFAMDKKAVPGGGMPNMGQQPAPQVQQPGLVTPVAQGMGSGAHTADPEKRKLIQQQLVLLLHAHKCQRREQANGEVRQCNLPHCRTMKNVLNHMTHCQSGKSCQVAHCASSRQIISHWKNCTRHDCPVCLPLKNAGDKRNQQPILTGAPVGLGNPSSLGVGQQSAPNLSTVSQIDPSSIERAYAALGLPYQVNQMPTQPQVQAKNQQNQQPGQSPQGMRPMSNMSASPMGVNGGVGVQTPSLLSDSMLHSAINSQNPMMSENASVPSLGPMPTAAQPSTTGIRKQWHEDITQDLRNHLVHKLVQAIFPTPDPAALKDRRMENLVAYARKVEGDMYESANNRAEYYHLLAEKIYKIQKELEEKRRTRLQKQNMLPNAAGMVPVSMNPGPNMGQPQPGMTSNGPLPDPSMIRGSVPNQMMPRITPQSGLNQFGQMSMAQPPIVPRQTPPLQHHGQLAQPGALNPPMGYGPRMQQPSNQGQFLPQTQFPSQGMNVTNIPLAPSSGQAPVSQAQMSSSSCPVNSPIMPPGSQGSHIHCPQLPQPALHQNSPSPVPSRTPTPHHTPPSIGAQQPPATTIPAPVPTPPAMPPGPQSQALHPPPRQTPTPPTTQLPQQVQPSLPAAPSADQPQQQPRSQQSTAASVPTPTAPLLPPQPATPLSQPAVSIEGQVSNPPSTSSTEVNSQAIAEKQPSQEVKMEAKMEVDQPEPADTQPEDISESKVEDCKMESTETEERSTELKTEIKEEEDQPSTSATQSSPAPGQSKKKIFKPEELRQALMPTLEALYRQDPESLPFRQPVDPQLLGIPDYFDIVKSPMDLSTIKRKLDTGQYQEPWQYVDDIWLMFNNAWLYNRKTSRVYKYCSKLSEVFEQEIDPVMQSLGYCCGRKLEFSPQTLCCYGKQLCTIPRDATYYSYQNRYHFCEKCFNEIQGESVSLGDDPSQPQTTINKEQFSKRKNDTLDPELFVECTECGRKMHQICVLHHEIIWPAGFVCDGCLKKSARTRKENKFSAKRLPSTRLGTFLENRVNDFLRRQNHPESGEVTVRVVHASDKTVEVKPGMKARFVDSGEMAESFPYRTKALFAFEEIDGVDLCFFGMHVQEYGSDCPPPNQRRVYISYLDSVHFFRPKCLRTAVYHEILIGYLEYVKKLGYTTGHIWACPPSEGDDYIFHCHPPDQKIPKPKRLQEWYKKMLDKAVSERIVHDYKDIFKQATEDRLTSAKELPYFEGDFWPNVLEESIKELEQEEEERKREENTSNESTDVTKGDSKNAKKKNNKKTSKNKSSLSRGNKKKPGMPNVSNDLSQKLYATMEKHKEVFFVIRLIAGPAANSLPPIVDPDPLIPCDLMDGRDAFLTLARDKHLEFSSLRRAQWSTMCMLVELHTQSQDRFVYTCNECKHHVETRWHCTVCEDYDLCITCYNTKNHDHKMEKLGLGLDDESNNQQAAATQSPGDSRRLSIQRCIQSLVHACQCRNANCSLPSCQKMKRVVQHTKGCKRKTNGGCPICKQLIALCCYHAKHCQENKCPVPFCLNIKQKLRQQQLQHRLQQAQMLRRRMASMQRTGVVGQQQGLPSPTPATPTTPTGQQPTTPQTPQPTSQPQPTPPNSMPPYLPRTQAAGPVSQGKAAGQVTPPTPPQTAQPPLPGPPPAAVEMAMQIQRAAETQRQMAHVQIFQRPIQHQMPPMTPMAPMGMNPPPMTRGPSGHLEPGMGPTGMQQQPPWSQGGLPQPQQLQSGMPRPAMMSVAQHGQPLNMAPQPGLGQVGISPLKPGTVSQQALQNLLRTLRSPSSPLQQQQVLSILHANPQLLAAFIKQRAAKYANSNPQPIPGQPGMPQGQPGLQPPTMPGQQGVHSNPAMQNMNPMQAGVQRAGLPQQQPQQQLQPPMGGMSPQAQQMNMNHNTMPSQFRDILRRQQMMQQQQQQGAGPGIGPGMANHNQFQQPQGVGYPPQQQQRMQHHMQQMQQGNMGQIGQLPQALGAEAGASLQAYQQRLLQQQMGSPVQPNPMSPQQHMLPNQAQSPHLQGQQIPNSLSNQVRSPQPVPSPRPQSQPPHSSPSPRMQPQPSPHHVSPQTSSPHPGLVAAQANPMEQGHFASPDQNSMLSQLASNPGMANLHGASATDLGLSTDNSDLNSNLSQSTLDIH
BRPF1, sequence (P55201 1085-1168 limits assumed, species assumed): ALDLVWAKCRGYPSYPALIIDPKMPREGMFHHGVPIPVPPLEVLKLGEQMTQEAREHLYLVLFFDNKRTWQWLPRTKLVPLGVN

Compound | Kd (BAZ2A) [µM] | Kd (BRD1) [µM] | Kd (BRD2(1)) [µM] | Kd (BRD2(2)) [µM] | Kd (TAF1L(2)) [µM] | Kd (FALZ; KD, FALZ) [µM] | Kd (PBRM1(2); KD, PBRM1(2)) [nM] | Kd (PBRM1(5); KD, PBRM1(5)) [nM] | Kd (TRIM24(PHD,BRD); KD, TRIM24(PHD,Bromo.)) [µM] | Kd (WDR9(2); KD, WDR9(2)) [nM] | Kd (BRD7; KD, BROMOscan Gene Symbol BRD7) [µM] | Kd (BRD8(2); [1]) [nM] | Kd (BRD8(2); [2]) [nM] | Kd (PBRM1(2); [1]) [nM] | Kd (PBRM1(5); [1]) [nM] | other results
CCCS(=O)(=O)c1nc(NC2CC2)cc(-c2ccc3c(ccn3C3CC(C)(C)NC(C)(C)C3)c2)n1 [NVS-CECR2-1] | > 30 | > 30 | > 30 | > 30 | 9.6 |  |  |  |  |  |  |  |  |  |  | activity at 1 µM (EP300): 90%; activity at 10 µM (EP300): 84%; activity at 1 µM (HAT1): 99%; activity at 10 µM (HAT1): 88%; activity at 1 µM (MYST1): 96%; activity at 10 µM (MYST1): 94%; activity at 1 µM (MYST3): 98%; activity at 10 µM (MYST3): 103%; activity at 1 µM (GCN5L2): 100%; activity at 10 µM (GCN5L2): 100%; Kd (BRD7): 6.8 µM; Kd (BRD8(2)): > 30000 nM; Kd (FALZ): 0.36 µM; Kd (PBRM1(2)): > 30000 nM; Kd (PBRM1(5)): > 30000 nM; Kd (TRIM24(PHD,BRD)): > 30 µM; Kd (WDR9(2)): 30000 nM
O=C(O)c1ccccc1O [Salicylic Acid] | > 14000 | > 14000 | > 14000 | > 14000 | > 14000 | > 14000 | 1e+06 | 160000 | > 14000 | > 1.4e+07 |  |  |  |  |  | Kd (BRD7; KD, BRD7): > 14000 µM; Kd (BRD8(2); KD, BRD8(2)): > 1.4e+07 nM
CCCOc1ccn2c(C(C)=O)cc(-c3ccccc3S(C)(=O)=O)c2c1 [GSK2801] |  | 60 | 41 | 22 | 5.1 |  |  |  |  |  | 22 | > 30000 | > 100000 | > 30000 | > 30000 | Kd (FALZ; KD, BROMOscan Gene Symbol FALZ): 95 µM; Kd (PBRM1(2); KD, BROMOscan Gene Symbol PBRM1(2)): > 100000 nM; Kd (PBRM1(5); KD, BROMOscan Gene Symbol PBRM1(5)): > 100000 nM; Kd (TRIM24(PHD,BRD); KD, BROMOscan Gene Symbol TRIM24(PHD,Bromo.)): 33 µM; Kd (WDR9(2); [1]): > 30000 nM; Kd (WDR9(2); KD, BROMOscan Gene Symbol WDR9(2)): > 100000 nM
CCC(=O)N1CCOc2c(cc(-c3ccc(OC)c(OC)c3)cc2OCC2CCCN(C)C2)C1 (stereo not drawn) [I-CBP112] | 70 | 51 | 5.7 | 26 | 52 | 5.5 | > 100000 | > 100000 | 14 | 59000 | 7.6 | > 30000 | > 100000 | > 30000 | > 30000 | Tm (C) 10µM, temperature shift (BRPF1): -0.2 Kelvin; activity at 1 µM (EP300; 1µM): 97%; activity at 10 µM (EP300; 10µM): 99%; activity at 1 µM (HAT1; 1µM): 100%; activity at 10 µM (HAT1; 10µM): 94%; activity at 1 µM (MYST1; 1µM): 98%; activity at 10 µM (MYST1; 10µM): 103%; activity at 1 µM (MYST3; 1µM): 98%; activity at 10 µM (MYST3; 10µM): 99%; activity at 1 µM (GCN5L2; 1µM): 105%; activity at 10 µM (GCN5L2; 10µM): 102%
